Where “and” joins values, the source holds several entries; their conditions need not be identical. Equal values may be shown once.

The assay has as its system lipase. Briefly: Lipase/lipolysis assay (EnzChek Lipase Substrate, quenched BODIPY-fatty acid conjugate) on stored human milk. Also: test concentration or dose not given here.
Take `C[C@H]1CC[C@@H]2[C@@H](C)[C@H]3[C@H](C[C@H]4[C@@H]5CC=C6C[C@@H](O[C@@H]7O[C@H](CO)[C@H](O)[C@H](O[C@@H]8O[C@H](CO)[C@@H](O)[C@H](O)[C@H]8O)[C@H]7O[C@@H]7O[C@@H](C)[C@H](O)[C@@H](O)[C@H]7O)CC[C@]6(C)[C@H]5CC[C@]34C)N2C1` [α-Solanine]: the “Lipase (RFU)” value is reported as 840.4474 RFU.
Consider `O=c1cc(-c2ccc(O)cc2)oc2cc(O)c([C@@H]3O[C@H](CO)[C@@H](O)[C@H](O)[C@H]3O[C@@H]3O[C@H](CO)[C@@H](O)[C@H](O)[C@H]3O)c(O)c12` [Meloside A], for which the “Lipase (RFU)” value came to 811.3753 RFU.
The same measure for `C=C[C@](C)(O)CC[C@H]1C(=C)CC[C@H]2C(C)(C)CCC[C@]12C` [Manool]: 923.6944 RFU.
For `COc1ccc(-c2cc(=O)c3c(O)c(OC)c(OC)c(OC)c3o2)cc1OC` [Compound 5-O-Demethylnobiletin], the “Lipase (RFU)” value stood at 860.071 RFU.
The same measure for `CC(C)=C1C/C=C(\C)CC/C=C(\C)CC1=O` [Germacrone]: 974.0245 RFU; for `C=C1C(=O)O[C@@H]2C[C@@]3(C)CCC[C@H](C)C3=C[C@H]12` [Alantolactone]: 900.1725 RFU; for `C[C@H](CCC(=O)O)[C@H]1CC[C@H]2[C@@H]3C(=O)C[C@@H]4C[C@H](O)CC[C@]4(C)[C@H]3C[C@H](O)[C@]12C` [7-keto-Deoxycholic acid]: 890.8412 RFU.
As to `Cc1ccc(C(C)C)cc1O` [Carvacrol], the “Lipase (RFU)” value was 695.2525 RFU and 1199.593 RFU.
On to `COC(=O)[C@]12CCC(C)(C)C[C@H]1C1=CC[C@@H]3[C@@]4(C)CCC(=O)C(C)(C)[C@@H]4CC[C@@]3(C)[C@]1(C)CC2` [Methyl oleanonate], for which the “Lipase (RFU)” value is listed as 912.7431 RFU.
On to `O=C(/C=C/c1ccc(O)cc1)NCCc1ccc(O)cc1` [N-p-trans-Coumaroyltyramine], for which the “Lipase (RFU)” value came out at 1082.731 RFU.
In the case of `COc1ccc2[nH]cc(CCO)c2c1` [5-Methoxytryptophol] it was 1031.531 RFU; in that of `O=c1c(-c2ccc(O)cc2)coc2cc(O[C@@H]3O[C@H](CO)[C@@H](O)[C@H](O)[C@H]3O)ccc12` [Daidzin], 828.0829 RFU.
In the case of Chicoric acid it was 1008.153 RFU.
For `O=C(/C=C/c1ccc(O)cc1)c1ccc(O[C@@H]2O[C@H](CO)[C@@H](O)[C@H](O)[C@H]2O)cc1O` [Neoisoliquiritin], the “Lipase (RFU)” value is 789.3461 RFU.
In the case of `CC1=C(C=O)C(C)(C)CC=C1` [Safranal] it was 1026.753 RFU and 1118.736 RFU; in that of `CC(=O)[C@H]1CC[C@H]2[C@@H]3CC[C@H]4CC(=O)CC[C@]4(C)[C@H]3CC[C@]12C` [5a-Pregnane-3,20-dione], 1117.705 RFU.
The same measure for `CC(=O)C1=CC[C@H]2[C@@H]3CCC4=CC(=O)CC[C@]4(C)[C@H]3CC[C@]12C` [Compound 16-Dehydroprogesterone]: 1000.658 RFU.
On to Lactate, for which the “Lipase (RFU)” value came out at 1249.686 RFU.
The same measure for Erythrosine B: 836.3958 RFU.
As to `COC(=O)C1=CO[C@@H](O[C@@H]2O[C@H](CO)[C@@H](O)[C@H](O)[C@H]2O)[C@@H]2[C@@H](C)CC(=O)[C@]12O` [Hastatoside], the “Lipase (RFU)” value came to 738.976 RFU.
In the case of `COc1cccc(C=O)c1` [m-Anisaldehyde] it was 1038.646 RFU; in that of `c1ccc2c(c1)[nH]c1cnccc12` [Norharmane], 960.1337 RFU.
`COc1cc(C[C@H](C)[C@H](C)Cc2ccc3c(c2)OCO3)ccc1O` [Macelignan]: the “Lipase (RFU)” value is 621.9317 RFU.
For the molecule `CC(=O)C(=O)c1ccccc1` [1-Phenylpropane-1,2-dione], the “Lipase (RFU)” value was 1078.742 RFU.
Regarding `C[C@H](CCC(=O)O)[C@H]1CC[C@H]2[C@@H]3CC[C@@H]4CC(O)CC[C@]4(C)[C@H]3CC(=O)[C@]12C` (some centres unmarked) [12-Ketodeoxycholic acid], the “Lipase (RFU)” value was determined as 778.2255 RFU.
In the case of `C/C=C/C=C/C(=O)[O-].[K+]` [Potassium sorbate] it was 727.0693 RFU and 1055.671 RFU; in that of `CCCCOC(=O)c1ccc(O)cc1` [Butylparaben], 948.3985 RFU.
In the case of `CC1(C)[C@@H](O[C@H]2O[C@H](C(=O)[O-])[C@@H](O)[C@H](O)[C@H]2O[C@@H]2O[C@H](C(=O)[O-])[C@@H](O)[C@H](O)[C@H]2O)CC[C@]2(C)[C@H]3C(=O)C=C4[C@@H]5C[C@@](C)(C(=O)O)CC[C@]5(C)CC[C@@]4(C)[C@]3(C)CC[C@@H]12.[K+].[K+]` [Dipotassium glycyrrhizinate] it was 813.8172 RFU and 1090.475 RFU; in that of `O=C(O)[C@@H]1CCN1` [L-Azetidine-2-carboxylic acid], 953.3787 RFU; in that of `C[C@@H]1O[C@@H](Oc2cc(O)c3c(=O)c(O)c(-c4ccc(O)cc4)oc3c2)[C@H](O)[C@H](O)[C@H]1O` [Kaempferol-7-O-rhamnoside], 963.8327 RFU.
On to `COC(=O)c1cccnc1` [Methyl nicotinate], for which the “Lipase (RFU)” value was 1069.07 RFU and 773.2703 RFU.
The same measure for `Cc1ccc(OS(=O)(=O)[O-])cc1.[K+]` [p-Cresyl sulfate (potassium)]: 825.569 RFU; for Ginkgolic Acid: 924.5734 RFU.
With β Glucan - 1,3/1,6, the “Lipase (RFU)” value is recorded as 942.984 RFU.
For the molecule `N[C@@H](CS)C(=O)NCC(=O)O.O=C(O)C(F)(F)F` [Cysteinylglycine (TFA)], the “Lipase (RFU)” value is on record as 954.0897 RFU.
In the case of `C[C@@H]1CC[C@@]2(OC1)O[C@H]1C[C@H]3[C@@H]4CC=C5C[C@@H](O[C@@H]6O[C@H](CO)[C@@H](O)[C@H](O)[C@H]6O)CC[C@]5(C)[C@H]4CC[C@]3(C)[C@H]1[C@@H]2C` [Diosgenin glucoside] it was 1057.302 RFU; in that of `OC1C(O)C(O)C(O)C(O)C1O` [D-chiro-Inositol], 896.4132 RFU; in that of `C[N+](C)(C)CCOP(=O)(O)O` [Phosphorylcholine], 1107.376 RFU.
On to `O=C1C[C@@H](c2ccc(O)cc2)Oc2cc(O[C@@H]3O[C@H](CO)[C@@H](O)[C@H](O)[C@H]3O)ccc21` [Neoliquiritin], for which the “Lipase (RFU)” value worked out at 772.4579 RFU.
The same measure for `c1cncc([C@@H]2CCCCN2)c1` (racemic) [(±) Anabasine]: 1022.058 RFU; for `CC(=O)N[C@@H]1C(O)O[C@H](CO)[C@@H](O)[C@@H]1O` (stereo partly drawn) [Cyclic N-Acetyl-D-mannosamine]: 868.6631 RFU.
As for `CCSCCC(N)C(=O)O` (racemic) [D,L-Ethionine], the “Lipase (RFU)” value was 921.5463 RFU.
Turning to `C[C@H](O)CO` [(S)-(+)-1,2-Propanediol], the “Lipase (RFU)” value turned out to be 1392.598 RFU.
In the case of `CCCCCCCC/C=C\CCCCCCCC(=O)[O-].[Na+]` [Sodium oleate] it was 985.0339 RFU and 925.2134 RFU; in that of `CC1(C)CC[C@]2(C)CC[C@]3(C)C(=CC[C@@H]4[C@@]5(C)CC[C@H](O)C(C)(C)[C@@H]5CC[C@]43C)[C@@H]2C1` [β-Amyrin], 1183.423 RFU.
Consider `CC(C)=CCc1cc2ccc(=O)oc2cc1O` [Demethylsuberosin], for which the “Lipase (RFU)” value is 917.5135 RFU.
In the case of `N[C@@H](Cc1ccc(O)c(Cl)c1)C(=O)O` [Compound 3-Chloro-L-tyrosine, 3-Chloro-L-tyrosine] it was 1117.619 RFU; in that of `C[C@@H]1NC(=O)N[C@@H]1CCCCCC(=O)O` [D-Desthiobiotin], 791.1157 RFU; in that of `CCCCCC/C=C/CCCCCCCCCC(=O)O` [trans-Vaccenic acid], 932.0426 RFU.
In the case of `COc1cc2oc(=O)ccc2c(OC)c1O` [Fraxinol] it was 772.0122 RFU; in that of `NC(=O)c1ccc[n+]([C@@H]2O[C@H](COP(=O)([O-])OP(=O)(O)OC[C@H]3O[C@@H](n4cnc5c(N)ncnc54)[C@H](OP(=O)(O)O)[C@@H]3O)[C@@H](O)[C@H]2O)c1` [NADP], 1113.421 RFU.
In the case of `COc1ccc([C@@H]2CC(=O)c3c(O)cc(O[C@@H]4O[C@H](CO[C@@H]5O[C@@H](C)[C@H](O)[C@@H](O)[C@H]5O)[C@@H](O)[C@H](O)[C@H]4O)cc3O2)cc1` [Didymin] it was 1064.164 RFU; in that of `CC(C)=CCC[C@](C)(O[C@@H]1O[C@H](CO)[C@@H](O)[C@H](O)[C@H]1O)[C@H]1CC[C@]2(C)[C@@H]1[C@H](O)C[C@@H]1[C@@]3(C)CC[C@H](O)C(C)(C)[C@@H]3[C@@H](O)C[C@]12C` [Ginsenoside F1], 975.1974 RFU.
On to `C[C@]12CC[C@@H](O)C[C@H]1CC[C@@H]1[C@@H]2[C@@H](O)C[C@@]2(C)[C@H]1CC[C@]2(O)C(=O)CO` [Tetrahydrocortisol], for which the “Lipase (RFU)” value is 1127.321 RFU.
The same measure for `O=c1c(O)c(-c2ccc(O)c(O)c2)oc2cc(O)c(O)c(O)c12` [Quercetagetin]: 891.7095 RFU; for `CC(=O)O[C@]1(C)CC[C@@]23C[C@@H]1C(C)(C)[C@@H]2CC[C@H]3C` [Cedryl acetate]: 1088.309 RFU.
In the case of `C[C@H](CCC(=O)NCCS(=O)(=O)O)[C@H]1CC[C@H]2[C@@H]3[C@H](O)C[C@@H]4C[C@H](O)CC[C@]4(C)[C@H]3C[C@H](O)[C@]12C` [Taurocholic Acid] it was 1299.592 RFU and 949.1523 RFU and 900.9931 RFU; in that of Liquiritin apioside, 875.5815 RFU; in that of `C[C@H](CCC(=O)NCCS(=O)(=O)O)[C@H]1CC[C@H]2[C@@H]3[C@@H](O)C[C@@H]4C[C@H](O)CC[C@]4(C)[C@H]3CC[C@]12C.O.O` [Tauroursodeoxycholate (dihydrate)], 1204.528 RFU.
As for `N[C@@H](CCCCNC(=O)CCCC[C@@H]1SC[C@@H]2NC(=O)N[C@@H]21)C(=O)O` [Biocytin], the “Lipase (RFU)” value came to 807.0879 RFU.
For the molecule `CCCCCCCCCCCCCC(=O)OC[C@@H](O)COP(=O)([O-])OCC[N+](C)(C)C` [LysoPC(14:0/0:0)], the “Lipase (RFU)” value is recorded as 1043.126 RFU.
In the case of `C=C1CC[C@]2(C)CC[C@]3(C)[C@H](CC[C@@H]4[C@@]5(C)CC[C@H](O)C(C)(C)[C@@H]5CC[C@]43C)[C@H]2[C@@H]1C` [Taraxasterol] it was 974.5848 RFU.

Values taken from patent publication US12507703B2, “Methods, devices and compositions for preserving human milk” (The Trustees of Princeton University, priority 2023, dated 2025).
